The test system of one data set is Plasmopara viticola. Nature of the data set: Activity against peronospora of grapevines caused by Plasmopara viticola (protective leaf spray, potted vines). It is filed as in vivo. The settings on record: comparison with the closest prior art, concentration not restated in the table, untreated 100. As for the experimental part: The mixture was then made up to 100 ml with water. This stock solution was diluted with the solvent/emulsifier/water mixture described to the concentration of active compounds stated below. Use example 1—Activity against peronospora of grapevines caused by Plasmopara viticola Leaves of potted vines were sprayed to runoff point with an aqueous suspension comprising 250 ppm of active compound. The next day, the undersides of the leaves were inoculated with an aqueous sporangia suspension of Plasmopara viticola. The vines were then initially placed in a water vapor-saturated chamber at 24° C. for 48 hours and then in a greenhouse at temperatures between 20 and 30° C. for five days. After this time, the plants were once more placed in a humid chamber for 16 hours to accelerate the eruption of sporangiophores. The extent of the development of the infection on the undersides of the leaves was then determined visually.

Molecule `CCCCCCCCCCc1c(C)nc2cc(C)nn2c1N` [Compound 28, reference compound] had an Infection in % with Plasmopara viticola of 40%. On to `CCc1nc2nc(C)nn2c(N)c1CCC(C)CC(C)(C)C` (stereo not shown) [Compound I-1, 5-ethyl-2-methyl-6-(3,5,5-trimethylhexyl)-[1,2,4]triazolo[1,5-a]pyrimidin-7-ylamine], for which the melting point fell in the range of 180 to 181 °C. Turning to `CCCCCCCCCCc1c(CC)nc2cc(C)nn2c1N` [Compound I-4], the melting point fell in the range of 130 to 131 °C. In addition, the Infection in % in the data set on Plasmopara viticola stood at 3%.

The melting point is the temperature of the solid-liquid transition.

(Values after patent US20080207455A1, “5,6-Dialkyl-7-Aminoazolopyrimidines, Their Preparation and Their Use for Controlling Harmful Fungi, and Compositions Comprising These Compounds” (BASF AKTINGESELLSCHAFT, priority 2005, published 2008).)
